Data published in the Kinase Knowledgebase extract (Sharma et al. 2016).

Molecular target: ROCK2 (human) (UniProt O75116)
Test: Inhibition of ROCK2 Kinase Activity

Sequence of ROCK2 (human) (O75116 whole entry, looked up): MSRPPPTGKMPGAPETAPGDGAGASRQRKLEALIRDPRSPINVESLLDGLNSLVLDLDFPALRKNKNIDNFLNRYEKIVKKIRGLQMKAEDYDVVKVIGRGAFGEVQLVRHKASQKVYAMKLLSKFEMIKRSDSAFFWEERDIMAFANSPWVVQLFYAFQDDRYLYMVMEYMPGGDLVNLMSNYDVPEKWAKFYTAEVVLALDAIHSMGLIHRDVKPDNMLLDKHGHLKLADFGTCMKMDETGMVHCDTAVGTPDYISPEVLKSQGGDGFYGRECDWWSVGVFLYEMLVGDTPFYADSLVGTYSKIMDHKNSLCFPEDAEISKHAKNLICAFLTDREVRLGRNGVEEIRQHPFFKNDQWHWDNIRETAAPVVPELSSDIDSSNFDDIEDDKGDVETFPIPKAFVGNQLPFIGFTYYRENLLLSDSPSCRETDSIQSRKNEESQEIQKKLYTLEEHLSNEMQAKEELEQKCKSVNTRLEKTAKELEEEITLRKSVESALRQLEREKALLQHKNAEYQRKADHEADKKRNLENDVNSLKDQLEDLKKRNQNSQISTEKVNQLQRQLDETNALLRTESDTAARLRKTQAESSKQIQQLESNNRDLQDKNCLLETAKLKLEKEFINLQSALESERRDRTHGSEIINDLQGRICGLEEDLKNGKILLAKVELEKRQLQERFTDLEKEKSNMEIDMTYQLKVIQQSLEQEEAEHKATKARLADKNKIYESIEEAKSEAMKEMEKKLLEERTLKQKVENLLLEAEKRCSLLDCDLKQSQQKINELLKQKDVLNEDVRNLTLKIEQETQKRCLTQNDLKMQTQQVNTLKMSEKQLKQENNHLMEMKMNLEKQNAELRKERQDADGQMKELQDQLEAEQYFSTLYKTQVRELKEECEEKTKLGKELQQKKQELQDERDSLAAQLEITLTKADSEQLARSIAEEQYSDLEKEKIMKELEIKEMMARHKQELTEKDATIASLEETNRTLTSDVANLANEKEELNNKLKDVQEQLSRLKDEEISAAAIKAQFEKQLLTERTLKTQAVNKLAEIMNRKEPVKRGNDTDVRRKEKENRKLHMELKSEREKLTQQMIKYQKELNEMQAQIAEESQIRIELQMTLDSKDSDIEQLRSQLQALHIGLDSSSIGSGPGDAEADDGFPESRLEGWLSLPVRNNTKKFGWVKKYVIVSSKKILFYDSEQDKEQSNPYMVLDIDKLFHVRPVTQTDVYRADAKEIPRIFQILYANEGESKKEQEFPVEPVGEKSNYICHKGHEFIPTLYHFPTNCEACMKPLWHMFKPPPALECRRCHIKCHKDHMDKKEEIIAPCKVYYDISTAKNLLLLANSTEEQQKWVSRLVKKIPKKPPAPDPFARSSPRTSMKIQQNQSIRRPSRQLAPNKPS

SMILES | IC50
CC(C)(C)c1ccc(CCNC(=O)CC(N)c2ccc(C(=O)Nc3ccncc3)cc2)cc1 (configuration not stated) | 50 to 500 nM
NC(CNC(=O)CC(c1ccccc1)c1ccccc1)c1ccc(C(=O)Nc2ccncc2)cc1 (configuration not stated) | 50 to 500 nM
NC(c1ccc(C(=O)Nc2ccncc2)cc1)C1CCCN1C(=O)C1CCSc2ccccc21 (configuration not stated) | 500 to 5000 nM
NC(c1ccc(C(=O)Nc2ccncc2)cc1)C1CCCN1C(=O)Cc1c(Cl)cccc1Cl (configuration not stated) | 500 to 5000 nM
NC(CC(=O)NCCc1cccc(Cl)c1)c1ccc(C(=O)Nc2ccncc2)cc1 (configuration not stated) | 50 to 500 nM
CCOCC(=O)NCC(N)c1ccc(C(=O)Nc2ccncc2)cc1 (configuration not stated) | 500 to 5000 nM
N#CCC(=O)NCC(N)c1ccc(C(=O)Nc2ccncc2)cc1 (configuration not stated) | 50 to 500 nM
NC(CNC(=O)c1cnnc2ccccc12)c1ccc(C(=O)Nc2ccncc2)cc1 (configuration not stated) | 500 to 5000 nM
NC(CNC(=O)c1ccc([N+](=O)[O-])o1)c1ccc(C(=O)Nc2ccncc2)cc1 (configuration not stated) | 500 to 5000 nM
COc1cccc2cc(C(=O)NCC(N)c3ccc(C(=O)Nc4ccncc4)cc3)oc12 (configuration not stated) | 50 to 500 nM
NC(CNC(=O)c1cccc(Oc2ccccc2)c1)c1ccc(C(=O)Nc2ccncc2)cc1 (configuration not stated) | 500 to 5000 nM
CC(C)(C(=O)NCC(N)c1ccc(C(=O)Nc2ccncc2)cc1)c1ccc(Cl)c(Cl)c1 (configuration not stated) | 50 to 500 nM
NC(CC(=O)NC(c1ccccc1)c1ccccc1)c1ccc(C(=O)Nc2ccncc2)cc1 (configuration not stated) | 50 to 500 nM
CC(C)(C)c1ccc(NC(=S)NCC(N)c2ccc(C(=O)Nc3ccncc3)cc2)cc1 (configuration not stated) | 500 to 5000 nM
NC(CC(=O)NCCc1c[nH]c2ccccc12)c1ccc(C(=O)Nc2ccncc2)cc1 (configuration not stated) | 50 to 500 nM
NC(c1ccc(C(=O)Nc2ccncc2)cc1)C1CCCN1C(=O)Cc1ccccc1 (configuration not stated) | 50 to 500 nM
CCC(C)C(=O)NCC(N)c1ccc(C(=O)Nc2ccncc2)cc1 (configuration not stated) | 500 to 5000 nM

SMILES | IC50
NC(CNC(=O)C1CCOC1)c1ccc(C(=O)Nc2ccncc2)cc1 (configuration not stated) | 500 to 5000 nM
CN(C)CCNC(=O)CC(N)c1ccc(C(=O)Nc2ccncc2)cc1 (configuration not stated) | 50 to 500 nM
NC(CNC(=O)CCC1CCCCC1)c1ccc(C(=O)Nc2ccncc2)cc1 (configuration not stated) | 50 to 500 nM
NC(CC(=O)NCc1cccc(C(F)(F)F)c1)c1ccc(C(=O)Nc2ccncc2)cc1 (configuration not stated) | 50 to 500 nM
NC(CNC(=O)Nc1ccc(-c2ccccc2)cc1)c1ccc(C(=O)Nc2ccncc2)cc1 (configuration not stated) | 500 to 5000 nM
NC(CNC(=O)NC1CCCCC1)c1ccc(C(=O)Nc2ccncc2)cc1 (configuration not stated) | 500 to 5000 nM
NC(CNC(=O)c1nccc2ccccc12)c1ccc(C(=O)Nc2ccncc2)cc1 (configuration not stated) | 500 to 5000 nM
CC(C)C(C)NC(=O)CC(N)c1ccc(C(=O)Nc2ccncc2)cc1 (configuration not stated) | 50 to 500 nM
Cc1nc(-c2ccccc2)sc1C(=O)NCC(N)c1ccc(C(=O)Nc2ccncc2)cc1 (configuration not stated) | 500 to 5000 nM
NC(CC(=O)NCCc1ccccc1)c1ccc(C(=O)Nc2ccncc2)cc1 (configuration not stated) | 50 to 500 nM
NC(CC(=O)NCc1ccc(-c2cccs2)cc1)c1ccc(C(=O)Nc2ccncc2)cc1 (configuration not stated) | 50 to 500 nM
NC(CC(=O)NCc1ccc(F)c(C(F)(F)F)c1)c1ccc(C(=O)Nc2ccncc2)cc1 (configuration not stated) | 50 to 500 nM
NC(c1ccc(C(=O)Nc2ccncc2)cc1)C1CCCN1C(=O)C1CCCc2sccc21 (configuration not stated) | 50 to 500 nM
NC(CNC(=O)c1ccc2[nH]nnc2c1)c1ccc(C(=O)Nc2ccncc2)cc1 (configuration not stated) | 500 to 5000 nM
NC(CNC(=S)Nc1ccc(C(F)(F)F)cc1)c1ccc(C(=O)Nc2ccncc2)cc1 (configuration not stated) | 500 to 5000 nM
NC(c1ccc(C(=O)Nc2ccncc2)cc1)C1CCCN1C(=O)C1CCCc2ccccc21 (configuration not stated) | 500 to 5000 nM
CC(NC(=O)CC(N)c1ccc(C(=O)Nc2ccncc2)cc1)c1cccc2ccccc12 (configuration not stated) | 50 to 500 nM

Further lines, results first:

IC50 | SMILES
500 to 5000 nM | NC(CNC(=O)c1ccccn1)c1ccc(C(=O)Nc2ccncc2)cc1 (configuration not stated)
50 to 500 nM | NC(CC(=O)N[C@H]1CCc2ccccc21)c1ccc(C(=O)Nc2ccncc2)cc1 (some centres not stated)
500 to 5000 nM | Cc1cccc(CC(=O)N2CCCC2C(N)c2ccc(C(=O)Nc3ccncc3)cc2)c1 (configuration not stated)
500 to 5000 nM | CN(CC(N)c1ccc(C(=O)Nc2ccncc2)cc1)C(=O)Cc1csc(-c2ccccc2)n1 (configuration not stated)
500 to 5000 nM | NC(CNC(=O)C1CCC1)c1ccc(C(=O)Nc2ccncc2)cc1 (configuration not stated)
500 to 5000 nM | CN(CC(N)c1ccc(C(=O)Nc2ccncc2)cc1)C(=O)C1(c2ccc(F)cc2F)CC1 (configuration not stated)
500 to 5000 nM | CCCOc1ccc(C(=O)NCC(N)c2ccc(C(=O)Nc3ccncc3)cc2)cc1 (configuration not stated)
500 to 5000 nM | CN(CC(N)c1ccc(C(=O)Nc2ccncc2)cc1)C(=O)C1(c2ccc(F)c(F)c2)CCC1 (configuration not stated)
500 to 5000 nM | NC(c1ccc(C(=O)Nc2ccncc2)cc1)C1CCCN1C(=O)Cc1cccc(Cl)c1 (configuration not stated)
50 to 500 nM | NC(CNC(=O)C1(c2ccc(F)cc2F)CC1)c1ccc(C(=O)Nc2ccncc2)cc1 (configuration not stated)
50 to 500 nM | CC(C)(C(=O)NCC(N)c1ccc(C(=O)Nc2ccncc2)cc1)c1ccc(F)c(Cl)c1 (configuration not stated)
500 to 5000 nM | CN(CC(N)c1ccc(C(=O)Nc2ccncc2)cc1)C(=O)Cc1cccc(Br)c1 (configuration not stated)
500 to 5000 nM | CN(CC(N)c1ccc(C(=O)Nc2ccncc2)cc1)C(=O)Cc1ccc(F)cc1F (configuration not stated)
500 to 5000 nM | NC(CNC(=O)C1CCc2ccccc2C1)c1ccc(C(=O)Nc2ccncc2)cc1 (configuration not stated)
500 to 5000 nM | CN(CC(N)c1ccc(C(=O)Nc2ccncc2)cc1)C(=O)Cc1ccc(F)cc1Cl (configuration not stated)
50 to 500 nM | NC(CC(=O)NCCc1ccc(F)cc1)c1ccc(C(=O)Nc2ccncc2)cc1 (configuration not stated)
50 to 500 nM | NC(CNC(=O)C1Cc2ccccc21)c1ccc(C(=O)Nc2ccncc2)cc1 (configuration not stated)
50 to 500 nM | Cc1ccccc1NC(=O)NCC(N)c1ccc(C(=O)Nc2ccncc2)cc1 (configuration not stated)
500 to 5000 nM | CN(CC(N)c1ccc(C(=O)Nc2ccncc2)cc1)C(=O)C1(c2ccc(Cl)cc2F)CC1 (configuration not stated)

IC50 | SMILES
50 to 500 nM | NC(c1ccc(C(=O)Nc2ccncc2)cc1)C1CCCN1C(=O)Cc1ccccc1F (configuration not stated)
500 to 5000 nM | NC(c1ccc(C(=O)Nc2ccncc2)cc1)C1CCCN1C(=O)C1(c2ccc(Cl)c(Cl)c2)CC1 (configuration not stated)
500 to 5000 nM | NC(CNC(=O)c1cc2ccccc2[nH]1)c1ccc(C(=O)Nc2ccncc2)cc1 (configuration not stated)
500 to 5000 nM | NC(CNC(=O)c1ccc2cc[nH]c2c1)c1ccc(C(=O)Nc2ccncc2)cc1 (configuration not stated)
500 to 5000 nM | CN(CC(N)c1ccc(C(=O)Nc2ccncc2)cc1)C(=O)C(C)(C)c1ccc(F)cc1 (configuration not stated)
50 to 500 nM | COc1ccc(CNC(=O)CC(N)c2ccc(C(=O)Nc3ccncc3)cc2)cc1 (configuration not stated)
500 to 5000 nM | CN(CC(N)c1ccc(C(=O)Nc2ccncc2)cc1)C(=O)C(C)(C)c1cccs1 (configuration not stated)
5000 to 50000 nM | CN(CC(N)c1ccc(C(=O)Nc2ccncc2)cc1)C(=O)C1CCSc2ccc(F)cc21 (configuration not stated)
50 to 500 nM | NC(CNC(=O)C1(c2ccc(Cl)cc2)CC1)c1ccc(C(=O)Nc2ccncc2)cc1 (configuration not stated)
< 200 nM | NC(CNC(=O)C1(c2ccc(F)cc2)CC1)c1ccc(C(=O)Nc2ccncc2)cc1 (configuration not stated)
500 to 5000 nM | CN(CC(N)c1ccc(C(=O)Nc2ccncc2)cc1)C(=O)Cc1csc2ccccc12 (configuration not stated)
500 to 5000 nM | CN(CC(N)c1ccc(C(=O)Nc2ccncc2)cc1)C(=O)C1(c2ccc(F)cc2)CCC1 (configuration not stated)
500 to 5000 nM | NC(c1ccc(C(=O)Nc2ccncc2)cc1)C1CCCN1C(=O)C1(c2ccc(Cl)cc2)CCCC1 (configuration not stated)
500 to 5000 nM | COc1ccc(C2(C(=O)N3CCCC3C(N)c3ccc(C(=O)Nc4ccncc4)cc3)CCCC2)cc1 (configuration not stated)
50 to 500 nM | NC(CC(=O)NCc1ccncc1)c1ccc(C(=O)Nc2ccncc2)cc1 (configuration not stated)
50 to 500 nM | NC(CC(=O)NCc1cccc(Cl)c1)c1ccc(C(=O)Nc2ccncc2)cc1 (configuration not stated)
500 to 5000 nM | NC(CNC(=O)c1cccc(Cl)c1)c1ccc(C(=O)Nc2ccncc2)cc1 (configuration not stated)
500 to 5000 nM | NC(c1ccc(C(=O)Nc2ccncc2)cc1)C1CCCN1C(=O)C1(c2ccc(Cl)cc2F)CC1 (configuration not stated)
50 to 500 nM | NC(CC(=O)Nc1ccc2cc[nH]c2c1)c1ccc(C(=O)Nc2ccncc2)cc1 (configuration not stated)
